Measured values: US11919965B2, “Methods of treating multiple myeloma with bispecific anti-BCMA x anti-CD3 antibodies” (Regeneron Pharmaceuticals, Inc., priority 2019, dated 2024)
Like-named read-outs stand apart in the source and are kept apart here.

Experiments:
[1] = test system: primary multiple myeloma blast cells; experiment: FACS cytotoxicity assay, autologous T cell-mediated killing of primary multiple myeloma blast cells; format: cell-based, human; settings: for EC50: read-out: MM Lysis EC50
Protocol: In order to monitor the specific killing of multiple myeloma cells by flow cytometry, bone marrow mononuclear cells (BMMC) from multiple myeloma patients were plated on human stromal cells (HS5) and rested overnight at 37 C. Separately, matching patient peripheral blood mononuclear cells (PBMC) were thawed and cultured in supplemented RPMI media at 1×10^6 cells/mL overnight at 37° C. in order to enrich for lymphocytes by depleting adherent cells. The next day, BMMC were co-incubated with adherent cell-depleted naïve PBMC on stromal cells (HS5) and a serial 10× dilution of BCMA×CD3 bispecific or 1-arm CD3 isotype control (starting concentration 66.7 nM) at 37° C. Cells were removed from cell culture plates at day 3, 4 or 7 and analyzed by FACS. For the assessment of specificity of killing, multiple myeloma cells were gated as single, live, CD90 negative (to exclude stromal cells), CD2 negative, CD56 positive. CD45 was low on multiple myeloma cells in most samples except MM455. Percent of live target cells was reported for the calculation of adjusted survival as follows: Adjusted survival=(R1/R2)*100, where R1=% live target cells in the presence of antibody, and R2=% live target cells in the absence of test antibody.
T cells were gated as CD2 positive, CD56 negative and either CD4 or CD8 positive. T cell activation was reported as the percent of CD25+CD4 or CD8 T cells out of total CD4 or CD8 T cells.

[2] = test system: BCMA-expressing NCI-H929 multiple myeloma tumors; experiment: Xenogenic tumor model, NCI-H929 + human PBMC s.c. in NSG mice, dose response, treatment from implantation (Example 11); format: in vivo, mouse
Protocol: To determine the in vivo efficacy of anti-BCMA×anti-CD3 bispecific antibodies (Abs), a xenogenic tumor study was performed. Immunodeficient NOD.Cg-Prkdc^ScidII2rg^tm1Wjl/SzJ (NSG) mice were subcutaneously implanted with a mixture of 10×10^6 BCMA-expressing NCI-H929 human multiple myeloma tumor cells and 0.5×10^6 human peripheral blood mononuclear cells (PBMC) isolated from a normal, healthy donor. […] The mice were administered these Abs twice per week for a total of seven doses, and tumor growth was assessed over 60 days. While BCMA+NCI-H929 tumors grew similarly in the vehicle- and CD3-binding control-treated mice, both anti-BCMA×anti-CD3 Abs that were tested prevented the growth of tumors in a dose-dependent manner in vivo.
Implantation and measurement of xenogenic tumors: NSG mice were subcutaneously implanted with a mixture of 10×10^6 BCMA-expressing NCI-H929 multiple myeloma cells and 0.5×10^6 PBMC derived from a normal, healthy donor. […] The mice were administered Abs twice per week for a total of seven doses. Tumor growth was measured with calipers twice per week for the duration of the experiment.
Calculation of xenogenic tumor growth and inhibition: In order to determine tumor volume by external caliper, the greatest longitudinal diameter (length in mm) and the greatest transverse diameter (width in mm) were determined. Tumor volumes based on caliper measurements were calculated by the formula: Volume (mm^3)=(length× width^2)/2.

[3] = test system: Jurkat/NFATLuc.3C7 reporter cells with HEK293 cells (BCMA negative); experiment: Jurkat/NFATLuc reporter bioassay (T-cell activation); format: cell-based, human
Protocol: (§1) Activity of the anti-BCMA×anti-CD3 bispecific antibodies were assessed in a Jurkat/NFATLuc reporter bioassay utilizing several cell lines with varying levels of BCMA surface expression. The Jurkat cells were engineered to express an NFAT-luciferase reporter (Jurkat/NFATLuc.3C7), and 50,000 Jurkat reporter cells were combined with 50,000 BCMA positive (Daudi, MM1-S, NCI-H929, OPM-2, RPMI-8226, MOLP-8, or Raji) or BCMA negative (HEK293) cells in Thermo Nunclon delta 96 well white microwell plates (Thermo Scientific, Cat #136102) in 50 ul of assay media (RPMI media with 10% FBS and 1% P/S/G). Three-fold serial dilutions of the BCMA×CD3 bispecific antibodies (mAb25441D or mAb25442D), or a bivalent anti-BCMA antibody (mAb21581) were immediately added in 50 uL of assay buffer. The plates were gently agitated and incubated in a 37° C., 5% CO2 incubator for 4-6 hours. NFAT-Luciferase activity was determined using Promega One-Glo (Cat #E6130) and a Perkin Elmer Envision plate reader. RLU were plotted in GraphPad Prism using a four-parameter logistic equation over a 12-point response curve to calculate EC50 values. The no antibody treatment condition for each dose-response curve is also included in the analysis as a continuation of the three-fold serial dilution and is represented as the lowest dose. The signal to noise (S:N) is determined by taking the ratio of the highest RLU on the curve to the lowest.

[4] = test system: Jurkat/NFATLuc.3C7 reporter cells with MM1-S cells (BCMA positive); experiment: as above; format: cell-based, human
Protocol: as §1

[5] = test system: Jurkat/NFATLuc.3C7 reporter cells with Raji cells (BCMA positive); experiment: as above; format: cell-based, human
Protocol: as §1

[6] = test system: Jurkat/NFATLuc.3C7 reporter cells with RPMI-8226 cells (BCMA positive); experiment: as above; format: cell-based, human
Protocol: as §1

For “REGN5459: anti-BCMA×anti-CD3 bispecific antibody: mAb21581 BCMA heavy chain, mAb7221G20 CD3 heavy chain and common light chain; SEQ ID NOs 126, 128, 129”, which EC50 ([1]; Sample MM2, E:T 1.4, 7 days) is on record?
Its EC50 is 7.24 nM.

And the “% MM lysis at 66 nM” value ([1]; Sample MM2, newly diagnosed, E:T 1.4, 7 days)?
Its value is 85%.

And the EC50 ([1]; Sample MM369, E:T 0.3, 3 days)?
Its EC50 is 0.496 nM.

What about the “% MM lysis at 66 nM” value ([1]; Sample MM369, newly diagnosed, E:T 0.3, 3 days) of the same substance?
The value was 94%.

And the EC50 ([1]; Sample MM453, E:T 2.4, 3 days)?
The EC50 was 1.19 nM.

And the “% MM lysis at 66 nM” value ([1]; Sample MM453, newly diagnosed, E:T 2.4, 3 days)?
Its value is 80%.

What about the EC50 ([1]; Sample MM455, E:T 0.4, 3 days) of the same substance?
The EC50 was 79.4 nM.

What about the “% MM lysis at 66 nM” value ([1]; Sample MM455, progression, treated, E:T 0.4, 3 days) of the same substance?
The value was 52%.

And the “Average Tumor Size (mm3) ± SEM on Day 4” value ([2]; 0.04 mg/kg)?
Its value is 33.0 ± 4.4 mm3.

What about the “Average Tumor Size (mm3) ± SEM on Day 7” value ([2]; 0.04 mg/kg) of the same substance?
The value was 8.4 ± 4.0 mm3.

And the “Average Tumor Size (mm3) ± SEM on Day 12” value ([2]; 0.04 mg/kg)?
Its value is 0 ± 0 mm3.

And the “Average Tumor Size (mm3) ± SEM on Day 19” value ([2]; 0.04 mg/kg)?
Its value is 23.1± 23.1 mm3.

What about the “Average Tumor Size (mm3) ± SEM on Day 22” value ([2]; 0.04 mg/kg) of the same substance?
Its value is 69.5 ± 69.5 mm3.

And the “Average Tumor Size (mm3) ± SEM on Day 26” value ([2]; 0.04 mg/kg)?
Its value is 156.7 ± 156.7 mm3.

And the “Average Tumor Size (mm3) ± SEM on Day 29” value ([2]; 0.04 mg/kg)?
Its value is 226.6 ± 226.6 mm3.

What about the “Average Tumor Size (mm3) ± SEM on Day 4” value ([2]; 0.4 mg/kg) of the same substance?
The value was 19.6 ± 4.4 mm3.

What about the “Average Tumor Size (mm3) ± SEM on Day 12” value ([2]; 0.4 mg/kg) of the same substance?
Its value is 0 ± 0 mm3.

And the “Average Tumor Size (mm3) ± SEM on Day 15” value ([2]; 0.4 mg/kg)?
The value was 0 ± 0 mm3.

What about the “Average Tumor Size (mm3) ± SEM on Day 19” value ([2]; 0.4 mg/kg) of the same substance?
The value was 0 ± 0 mm3.

And the “Average Tumor Size (mm3) ± SEM on Day 22” value ([2]; 0.4 mg/kg)?
Its value is 0 ± 0 mm3.

And the “Average Tumor Size (mm3) ± SEM on Day 26” value ([2]; 0.4 mg/kg)?
Its value is 0 ± 0 mm3.

What about the “Average Tumor Size (mm3) ± SEM on Day 29” value ([2]; 0.4 mg/kg) of the same substance?
Its value is 0 ± 0 mm3.

And the “Average Tumor Size (mm3) ± SEM on Day 34” value ([2]; 0.4 mg/kg)?
Its value is 0 ± 0 mm3.

What about the “Average Tumor Size (mm3) ± SEM on Day 39” value ([2]; 0.4 mg/kg) of the same substance?
Its value is 0 ± 0 mm3.

And the “Average Tumor Size (mm3) ± SEM on Day 42” value ([2]; 0.4 mg/kg)?
Its value is 0 ± 0 mm3.

And the “Average Tumor Size (mm3) ± SEM on Day 46” value ([2]; 0.4 mg/kg)?
The value was 0 ± 0 mm3.

What about the “Average Tumor Size (mm3) ± SEM on Day 55” value ([2]; 0.4 mg/kg) of the same substance?
The value was 0 ± 0 mm3.

And the “Average Tumor Size (mm3) ± SEM on Day 60” value ([2]; 0.4 mg/kg)?
Its value is 0 ± 0 mm3.

What about the “Average Tumor Size (mm3) ± SEM on Day 4” value ([2]; 4 mg/kg) of the same substance?
The value was 21.8 ± 3.4 mm3.

What about the “Average Tumor Size (mm3) ± SEM on Day 7” value ([2]; 4 mg/kg) of the same substance?
The value was 8.0 ± 4.3 mm3.

And the “Average Tumor Size (mm3) ± SEM on Day 12” value ([2]; 4 mg/kg)?
The value was 1.7 ± 1.7 mm3.

What about the “Average Tumor Size (mm3) ± SEM on Day 15” value ([2]; 4 mg/kg) of the same substance?
Its value is 0 ± 0 mm3.

What about the “Average Tumor Size (mm3) ± SEM on Day 19” value ([2]; 4 mg/kg) of the same substance?
Its value is 0 ± 0 mm3.

And the “Average Tumor Size (mm3) ± SEM on Day 22” value ([2]; 4 mg/kg)?
The value was 0 ± 0 mm3.

What about the “Average Tumor Size (mm3) ± SEM on Day 26” value ([2]; 4 mg/kg) of the same substance?
The value was 0 ± 0 mm3.

What about the “Average Tumor Size (mm3) ± SEM on Day 29” value ([2]; 4 mg/kg) of the same substance?
Its value is 0 ± 0 mm3.

And the “Average Tumor Size (mm3) ± SEM on Day 34” value ([2]; 4 mg/kg)?
Its value is 0 ± 0 mm3.

And the “Average Tumor Size (mm3) ± SEM on Day 39” value ([2]; 4 mg/kg)?
Its value is 0 ± 0 mm3.

What about the “Average Tumor Size (mm3) ± SEM on Day 42” value ([2]; 4 mg/kg) of the same substance?
The value was 0 ± 0 mm3.

And the “Average Tumor Size (mm3) ± SEM on Day 46” value ([2]; 4 mg/kg)?
Its value is 0 ± 0 mm3.

And the “Average Tumor Size (mm3) ± SEM on Day 55” value ([2]; 4 mg/kg)?
The value was 0 ± 0 mm3.

What about the “Average Tumor Size (mm3) ± SEM on Day 60” value ([2]; 4 mg/kg) of the same substance?
The value was 0 ± 0 mm3.

And the “S:N (highest RLU to lowest)” value [3]?
Its value is 1.

What about the “S:N (highest RLU to lowest)” value [4] of the same substance?
The value was 120.

What about the “S:N (highest RLU to lowest)” value [5] of the same substance?
Its value is 78.

And the “S:N (highest RLU to lowest)” value [6]?
The value was 42.
